TGI data for 14 molecules are collected here from PubChem BioAssay (NCI).

Test systems include MALME-3M melanoma; UACC-257 melanoma; 786-0 renal; UACC-62 melanoma; COLO 205 colon; SNB-75 CNS; LOX IMVI melanoma; MCF7 breast; NCI/ADR-RES ovarian.
What all share (assay): inhibition of tumour cell growth, NCI panel, 48 h

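Interpolation was linear, between the two tested concentrations surrounding the appropriate level; five concentrations were tested over 48 hours in 96-well plates. Definition used: TGI = concentration required for complete inhibition of growth.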

Regarding `O=Cc1cc(O)c(O)c(O)c1-c1c(C=O)cc(O)c(O)c1O`, the TGI in the assay on MALME-3M melanoma, in the assay on UACC-257 melanoma, with 786-0 renal, in the assay on UACC-62 melanoma, in the assay with COLO 205 colon and in the assay on SNB-75 CNS was over 100 µM each time. For the same molecule, in the assay on LOX IMVI melanoma, the TGI was over 100 µM.

On to `O=c1[nH]c2ccc(CC(=S)N3CCN(c4ccccc4)CC3)cc2s1`, for which the TGI is 55.5 µM in the assay on MALME-3M melanoma; over 100 µM in the assay on UACC-257 melanoma; over 100 µM in the assay on 786-0 renal; over 100 µM with UACC-62 melanoma; over 100 µM with MCF7 breast; 69.3 µM in the assay with NCI/ADR-RES ovarian. Further, the TGI in the assay on COLO 205 colon and in the assay with LOX IMVI melanoma was over 100 µM throughout.

As for `CC1(C)OC1CC/C(=C/CBr)CBr` (centres undefined), the TGI in the assay on MALME-3M melanoma came to 36.9 µM; with UACC-257 melanoma it was 28.8 µM; in the assay with 786-0 renal, 28.7 µM; in the assay with MCF7 breast, 28.5 µM; in the assay on NCI/ADR-RES ovarian, 49.6 µM; in the assay with COLO 205 colon, 29.4 µM. Further, the TGI was found to be 21 µM in the assay on SNB-75 CNS and 22.3 µM in the assay with LOX IMVI melanoma.

Consider `CC1OC(OP(=O)(OCc2ccccc2)OCc2ccccc2)C(OC(=O)c2ccccc2)C(OC(=O)c2ccccc2)C1I` (centres undefined), for which the TGI in the assay on MALME-3M melanoma was over 100 µM; with UACC-257 melanoma it was over 100 µM; in the assay with 786-0 renal, over 100 µM; with UACC-62 melanoma it was over 100 µM; in the assay with COLO 205 colon, 84.8 µM; with SNB-75 CNS it was 68.1 µM. For the same molecule, the TGI with LOX IMVI melanoma is over 100 µM.

`COc1ccc(NS(=O)C2CCCCC2)cc1` (centres undefined): the TGI with MALME-3M melanoma, in the assay with UACC-257 melanoma, with 786-0 renal, with MCF7 breast, with NCI/ADR-RES ovarian and with COLO 205 colon was over 100 µM in each case. Moreover, the TGI in the assay with SNB-75 CNS and in the assay with LOX IMVI melanoma was over 100 µM each time.

On to `C[Si](C)(C)C#C[I+]c1ccccc1`, for which the TGI in the assay with MALME-3M melanoma was over 100 µM; in the assay on UACC-257 melanoma, over 100 µM; with 786-0 renal, over 100 µM; in the assay with UACC-62 melanoma, over 100 µM; in the assay with COLO 205 colon, 32.9 µM; with SNB-75 CNS it was over 100 µM. Moreover, the TGI with LOX IMVI melanoma came out at 41.2 µM.

For `N#Cc1nn(-c2ccc(Cl)cc2)c(N)c2c(=N)n3nc(-c4ccccc4)cc3nc12`, the TGI was over 100 µM in the assay on UACC-257 melanoma; over 100 µM in the assay with 786-0 renal; over 35.7 µM in the assay with UACC-62 melanoma; over 68.4 µM in the assay on SNB-75 CNS; over 37.9 µM in the assay with LOX IMVI melanoma.

Turning to `Cc1c(Cl)cccc1NC(=O)C(=O)C1C(=O)NC(=O)NC1=O`, the TGI with MALME-3M melanoma, in the assay on UACC-257 melanoma, with 786-0 renal, with UACC-62 melanoma, in the assay with COLO 205 colon and in the assay with SNB-75 CNS was over 100 µM throughout. In addition, in the assay with LOX IMVI melanoma, the TGI was over 100 µM.

Consider `Cc1cccc(Nc2cn(CCOc3ccccc3)c(=O)[nH]c2=O)c1`, for which the TGI was over 100 µM in the assay on UACC-257 melanoma; over 100 µM in the assay on 786-0 renal; over 100 µM in the assay with UACC-62 melanoma; over 100 µM in the assay on MCF7 breast; 9.06 µM in the assay with NCI/ADR-RES ovarian; 36.8 µM in the assay with COLO 205 colon. The same molecule gave a TGI with LOX IMVI melanoma of 94 µM.

Turning to `CC(=O)OC(C)(C)C1CCC(C)(C(O)COc2ccc(CCNC(=O)c3ccccc3)cc2)O1` (centres undefined), the TGI in the assay on MALME-3M melanoma, in the assay with UACC-257 melanoma, with 786-0 renal, in the assay on UACC-62 melanoma, in the assay on COLO 205 colon and with SNB-75 CNS was over 100 µM throughout. The same molecule yielded a TGI in the assay on LOX IMVI melanoma of over 100 µM.

Take `c1ccc(/C(=N/Nc2cnccn2)c2ncccn2)cc1`: the TGI with UACC-257 melanoma, in the assay on 786-0 renal, in the assay with UACC-62 melanoma, in the assay with MCF7 breast, in the assay on NCI/ADR-RES ovarian and in the assay on COLO 205 colon was over 100 µM each time. For the same molecule, the TGI in the assay on SNB-75 CNS is over 100 µM.

`CC(=O)OC1COC(N2C(=O)C(=O)c3cc(Br)c([N+](=O)[O-])cc32)C(OC(C)=O)C1OC(C)=O` (centres undefined): the TGI in the assay with MALME-3M melanoma was over 100 µM; in the assay on UACC-257 melanoma, over 100 µM; in the assay with 786-0 renal, over 100 µM; in the assay with UACC-62 melanoma it was over 100 µM; with COLO 205 colon, over 100 µM; in the assay on SNB-75 CNS, 81.4 µM. In the assay on LOX IMVI melanoma, this molecule yielded a TGI of 99 µM.

Consider `C[C@H](NC(=O)OC1C2C=CC(O)C1CC2)c1ccccc1` (some centres undefined), for which the TGI in the assay on MALME-3M melanoma, in the assay on UACC-257 melanoma, in the assay on 786-0 renal, in the assay on UACC-62 melanoma, in the assay on COLO 205 colon and in the assay with SNB-75 CNS was over 100 µM each time. The molecule further showed a TGI in the assay with LOX IMVI melanoma of over 100 µM.

In the case of `OC(Cn1cncn1)(Cn1cncn1)c1ccc(Cl)cc1Cl`, the TGI in the assay with MALME-3M melanoma, in the assay with UACC-257 melanoma, with 786-0 renal, in the assay with UACC-62 melanoma, in the assay on COLO 205 colon and in the assay on SNB-75 CNS was over 100 µM throughout. In the assay with LOX IMVI melanoma, this molecule yielded a TGI of over 100 µM.
